We go through 9 compounds from patent publication US8722673B2, “Imine compounds for combating invertebrate pests” (BASF SE, priority 2008, dated 2014).

Some results are limits rather than exact numbers.

Format in all cases: in vivo
Data set [1] has as its system Diamond Back Moth (Plutella xylostella). Briefly: Diamond back moth leaf-dip test on Chinese cabbage. The settings on record: read-out: mortality in comparison with untreated controls. As for the experimental part:
(§1) If not otherwise specified the test solutions were prepared as follow:
(§2) The active compound was dissolved at the desired concentration in a mixture of 1:1 (vol:vol) distilled water:acteon. The test solution was prepared the day it was used and in general at concentrations of […] (wt/vol).
Leaves of Chinese cabbage were dipped in test solution and air-dried. Treated leaves were placed in petri dished lined with moist filter paper. Mortality was recorded 24, 72, and 120 hours after treatment.

Data set [2] relates to Mediterranean Fruitfly (Ceratitis capitata). The data set can be described thus: Mediterranean fruitfly microtiter plate diet test. The conditions noted are these: 120 h, read-out: mortality in comparison with untreated controls. The protocol:
For evaluating control of Mediterranean fruitfly (Ceratitis capitata) the test unit consisted of microtiter plates containing an insect diet and 50-80 C. capitata eggs.
The compounds were formulated using a solution containing 75% v/v water and 25% v/v DMSO. Different concentrations of formulated compounds were sprayed onto the insect diet at 5 μl, using a custom built micro atomizer, at two replications. After application, microtiter plates were incubated at about 28±1° C. and about 80±5% relative humidity for 5 days. Egg and larval mortality was then visually assessed.

Data set [3] deals with Southern Armyworm (Spodoptera eridania). The data set can be described thus: Southern armyworm spray test on lima bean plants. The conditions noted are these: 96 h, read-out: mortality in comparison with untreated controls. As for the experimental part: The active compounds were formulated in cyclohexanone as a 10,000 ppm solution supplied in tubes. The tubes were inserted into an automated electrostatic sprayer equipped with an atomizing nozzle and served as stock solutions for which lower dilutions are made in 50% acetone:50% water (v/v). A nonionic surfactant (Kinetic®) was included in the solution at a volume of 0.01% (v/v).
Lima bean plants (variety Sieva) were grown 2 plants to a pot and selected for treatment at the 1st true leaf stage. Test solutions were sprayed onto the foliage by an automated electrostatic plant sprayer equipped with an atomizing spray nozzle. The plants were dried in the sprayer fume hood and then removed from the sprayer. Each pot was placed into perforated plastic bags with a zip closure. About 10 to 11 armyworm larvae were placed into the bag and the bags zipped closed. Test plants were maintained in a growth room at about 25° C. and about 20-40% relative humidity for 4 days, avoiding direct exposure to fluorescent light (24 hour photoperiod) to prevent trapping of heat inside the bags. Mortality and reduced feeding were assessed 4 days after treatment, compared to untreated control plants.

Data set [4] deals with Tobacco Budworm (Heliothis virescens). The data set can be described thus: Tobacco budworm microtiter plate diet test. The settings on record: 120 h, read-out: mortality in comparison with untreated controls. As for the experimental part:
For evaluating control of tobacco budworm (Heliothis virescens) the test unit consisted of 96-well-microtiter plates containing an insect diet and 15-25 H. virescens eggs. The compounds were formulated using a solution containing 75% v/v water and 25% v/v DMSO. Different concentrations of formulated compounds were sprayed onto the insect diet at 10 μl, using a custom built micro atomizer, at two replications. After application, microtiter plates are incubated at about 28±1° C. and about 80±5% relative humidity for 5 days. Egg and larval mortality is then visually assessed.

Data set [5] concerns Boll Weevil (Anthonomus grandis). The data set can be described thus: Boll weevil microtiter plate diet test. The settings on record: 120 h, read-out: mortality in comparison with untreated controls. As for the experimental part: For evaluating control of boll weevil (Anthonomus grandis) the test unit consisted of 24-well-microtiter plates containing an insect diet and 20-30 A. grandis eggs. The compounds were formulated using a solution containing 75% v/v water and 25% v/v DMSO. Different concentrations of formulated compounds were sprayed onto the insect diet at 20 μl, using a custom built micro atomizer, at two replications. After application, microtiter plates were incubated at about 23±1° C. and about 50±5% relative humidity for 5 days. Egg and larval mortality was then visually assessed.

Data set [6] deals with Vetch Aphid (Megoura viciae). The data set can be described thus: Vetch aphid leaf disk microtiter plate test. The settings on record: foliar, 120 h, read-out: mortality in comparison with untreated controls. The protocol:
For evaluating control of vetch aphid (Megoura viciae) through contact or systemic means the test unit consisted of 24-well-microtiter plates containing broad bean leaf disks. The compounds were formulated using a solution containing 75% v/v water and 25% v/v DMSO. Different concentrations of formulated compounds were sprayed onto the leaf disks at 2.5 μl, using a custom built micro atomizer, at two replications. After application, the leaf disks were air-dried and 5-8 adult aphids were placed on the leaf disks inside the microtiter plate wells. The aphids were then allowed to suck on the treated leaf disks and incubated at about 23±1° C. and about 50±5% relative humidity for 5 days. Aphid mortality and fecundity was then visually assessed.

Data set [7] concerns Silverleaf Whitefly (Bemisia argentifolii). Briefly: Silverleaf whitefly spray test on cotton plants. The conditions noted are these: 72 h, read-out: mortality in comparison with untreated controls. An excerpt:
The active compounds were formulated in cyclohexanone as a 10,000 ppm solution supplied in tubes. The tubes were inserted into an automated electrostatic sprayer equipped with an atomizing nozzle and served as stock solutions for which lower dilutions were made in 50% acetone:50% water (v/v). A nonionic surfactant (Kinetic®) was included in the solution at a volume of 0.01% (v/v).
Cotton plants at the cotyledon stage (one plant per pot) were sprayed by an automated electrostatic plant sprayer equipped with an atomizing spray nozzle. The plants were dried in the sprayer fume hood and then removed from the sprayer. Each pot was placed into a plastic cup and about 10 to 12 whitefly adults (approximately 3-5 days old) were introduced. The insects were collected using an aspirator and a nontoxic Tygon® tubing connected to a barrier pipette tip. The tip, containing the collected insects, was then gently inserted into the soil containing the treated plant, allowing insects to crawl out of the tip to reach the foliage for feeding. Cups were covered with a reusable screened lid. Test plants were maintained in a growth room at about 25° C. and about 20-40% relative humidity for 3 days, avoiding direct exposure to fluorescent light (24 hour photoperiod) to prevent trapping of heat inside the cup. Mortality was assessed 3 days after treatment, compared to untreated control plants.

The test system of data set [8] is Cowpea Aphid (Aphis craccivora). The data set can be described thus: Cowpea aphid spray test on potted cowpea plants. The conditions noted are these: 500 ppm; population reduction assessed after 24, 72 and 120 hours. As for the experimental part: as §1, §2
Potted cowpea plants colonized with approximately 100-150 aphids of various stages were sprayed after the pest population had been recorded. Population reduction was assessed after 24, 72, and 120 hours.

Data set [9] concerns Orchid Thrips (Dichromothrips corbetti). Briefly: Orchid thrips floral-immersion test. The conditions noted are these: 96 h, read-out: mortality in comparison with untreated controls. The protocol:
Dichromothrips corbetti adults used for bioassay were obtained from a colony maintained continuously under laboratory conditions. For testing purposes, the test compound was diluted to a concentration of 300 ppm (wt compound: vol diluent) in a 1:1 mixture of acetone:water (vol:vol), plus 0.01% vol/vol Kinetic® surfactant.
Thrips potency of each compound was evaluated by using a floral-immersion technique. Plastic petri dishes were used as test arenas. All petals of individual, intact orchid flowers were dipped into treatment solution and allowed to dry. Treated flowers were placed into individual petri dishes along with 10-15 adult thrips. The petri dishes were then covered with lids. All test arenas were held under continuous light and a temperature of about 28° C. for duration of the assay. After 4 days, the numbers of live thrips was counted on each flower, and along inner walls of each petri dish. The level of thrips mortality was extrapolated from pre-treatment thrips numbers.

One may read the mortality as the share of the test organisms that died. Turning to `COC(=NO)c1ccc(C2=NOC(c3cc(Cl)cc(Cl)c3)(C(F)(F)F)C2)cc1C` (single isomer, unassigned) [Compound 1-30, 4-[5-(3,5-Dichloro-phenyl)-5-trifluoromethyl-4,5-dihydro-isoxazol-3-yl]-N-hydroxy-2-methyl-benzimidic acid methyl ester], the mortality at 300 ppm in [1] and in data set [3] was ≥ 75% in each case. Besides, the mortality at 2500 ppm in data set [2], in data set [4] and in data set [5] was ≥ 75% each time.
On to `COC(=NO)c1ccc(C2=NOC(c3cc(Cl)cc(Cl)c3)(C(F)(F)F)C2)cc1C` (single isomer, unassigned) [Compound 1-31, 4-[5-(3,5-Dichloro-phenyl)-5-trifluoromethyl-4,5-dihydro-isoxazol-3-yl]-N-hydroxy-2-methyl-benzimidic acid methyl ester], for which the mortality at 2500 ppm in [6] is ≥ 75%.
With `Cc1cc(C2=NOC(c3cc(Cl)cc(Cl)c3)(C(F)(F)F)C2)ccc1/C=N/OCC(=O)NCC(F)(F)F` (centres unmarked) [Compound 1-9, 2-[1-{4-[5-(3,5-Dichloro-phenyl)-5-trifluoromethyl-4,5-dihydro-isoxazol-3-yl]-2-methyl-phenyl}-meth-(E)-ylideneaminooxy]-N-(2,2,2-trifluoro-ethyl)-acetamide], the mortality at 300 ppm in data set [1] and in data set [3] was ≥ 75% throughout. For the same compound, the mortality at 2500 ppm in data set [4] and in data set [5] was ≥ 75% in each case.
In the case of `Cc1cc(C2=NOC(c3cc(Cl)cc(Cl)c3)(C(F)(F)F)C2)ccc1/C=N/OCC(=O)O` (centres unmarked) [Compound 1-12, [1-{4-[5-(3,5-Dichloro-phenyl)-5-trifluoromethyl-4,5-dihydro-isoxazol-3-yl]-2-methyl-phenyl}-meth-(E)-ylideneaminooxy]-acetic acid], the mortality at 300 ppm in [7] is ≥ 75%. Further, the mortality at 2500 ppm in [6] and in [4] was ≥ 75% throughout.
For `Cc1cc(C2=NOC(c3cc(Cl)cc(Cl)c3)(C(F)(F)F)C2)ccc1/C=N/OCC(=O)OC(C)(C)C` (centres unmarked) [Compound 1-13, [1-{4-[5-(3,5-Dichloro-phenyl)-5-trifluoromethyl-4,5-dihydro-isoxazol-3-yl]-2-methyl-phenyl}-meth-(E)-ylideneaminooxy]-acetic acid tert-butyl ester], the mortality at 300 ppm in [1] and in [3] was ≥ 75% each time. For the same compound, the mortality at 2500 ppm in data set [4] was ≥ 75%.
Turning to `Cc1cc(C2=NOC(c3cc(Cl)cc(Cl)c3)(C(F)(F)F)C2)ccc1/C=N/OCC(=O)N1CCOCC1` (centres unmarked) [Compound 1-16], the “mortality in comparison with untreated controls” value in data set [8] is given as “at least 75%”.
Consider `CC(=NO)c1ccc(C2=NOC(c3cc(Cl)cc(Cl)c3)(C(F)(F)F)C2)cc1C` (centres unmarked) [Compound 1-17, 1-{4-[5-(3,5-Dichloro-phenyl)-5-trifluoromethyl-4,5-dihydro-isoxazol-3-yl]-2-methyl-phenyl}-ethanone oxime], for which the mortality at 300 ppm in [1] and in [9] was ≥ 75% in each case. Besides, the mortality at 2500 ppm in data set [4] and in data set [5] was ≥ 75% throughout.
`Cc1cc(C2=NOC(c3cc(Cl)cc(Cl)c3)(C(F)(F)F)C2)ccc1/C=N/NC(=O)c1ccccn1` (centres unmarked) [Compound 1-45, Pyridine-2-carboxylic acid [1-{4-[5-(3,5-dichloro-phenyl)-5-trifluoromethyl-4,5-dihydro-isoxazol-3-yl]-2-methyl-phenyl}-meth-(E)-ylidene]-hydrazide]: the mortality at 2500 ppm in [4] and in data set [5] was ≥ 75% in each case.
With `Cc1cc(C2=NOC(c3cc(Cl)cc(Cl)c3)(C(F)(F)F)C2)ccc1C(CC(C)C)=NO` (centres unmarked) [Compound 1-55, 1-{4-[5-(3,5-Dichloro-phenyl)-5-trifluoromethyl-4,5-dihydro-isoxazol-3-yl]-2-methyl-phenyl}-3-methyl-butan-1-one oxime], the mortality at 300 ppm in data set [1] was ≥ 75%. Also, the mortality at 2500 ppm in [4] and in data set [5] was ≥ 75% in each case.
